Results from patent US7598245B2 (Vertex Pharmaceuticals Incorporated, priority 2003, dated 2009).

Legend:
Type in all cases: biochemical
[1] = molecular target: T1, JAK-3 (Homo sapiens, UniProt P52333); assay: JAK3 inhibition assay (ELISA, Poly (Glu, Ala, Tyr) coated plates); settings: 2 μM ATP
T1 sequence (P52333 1-1124): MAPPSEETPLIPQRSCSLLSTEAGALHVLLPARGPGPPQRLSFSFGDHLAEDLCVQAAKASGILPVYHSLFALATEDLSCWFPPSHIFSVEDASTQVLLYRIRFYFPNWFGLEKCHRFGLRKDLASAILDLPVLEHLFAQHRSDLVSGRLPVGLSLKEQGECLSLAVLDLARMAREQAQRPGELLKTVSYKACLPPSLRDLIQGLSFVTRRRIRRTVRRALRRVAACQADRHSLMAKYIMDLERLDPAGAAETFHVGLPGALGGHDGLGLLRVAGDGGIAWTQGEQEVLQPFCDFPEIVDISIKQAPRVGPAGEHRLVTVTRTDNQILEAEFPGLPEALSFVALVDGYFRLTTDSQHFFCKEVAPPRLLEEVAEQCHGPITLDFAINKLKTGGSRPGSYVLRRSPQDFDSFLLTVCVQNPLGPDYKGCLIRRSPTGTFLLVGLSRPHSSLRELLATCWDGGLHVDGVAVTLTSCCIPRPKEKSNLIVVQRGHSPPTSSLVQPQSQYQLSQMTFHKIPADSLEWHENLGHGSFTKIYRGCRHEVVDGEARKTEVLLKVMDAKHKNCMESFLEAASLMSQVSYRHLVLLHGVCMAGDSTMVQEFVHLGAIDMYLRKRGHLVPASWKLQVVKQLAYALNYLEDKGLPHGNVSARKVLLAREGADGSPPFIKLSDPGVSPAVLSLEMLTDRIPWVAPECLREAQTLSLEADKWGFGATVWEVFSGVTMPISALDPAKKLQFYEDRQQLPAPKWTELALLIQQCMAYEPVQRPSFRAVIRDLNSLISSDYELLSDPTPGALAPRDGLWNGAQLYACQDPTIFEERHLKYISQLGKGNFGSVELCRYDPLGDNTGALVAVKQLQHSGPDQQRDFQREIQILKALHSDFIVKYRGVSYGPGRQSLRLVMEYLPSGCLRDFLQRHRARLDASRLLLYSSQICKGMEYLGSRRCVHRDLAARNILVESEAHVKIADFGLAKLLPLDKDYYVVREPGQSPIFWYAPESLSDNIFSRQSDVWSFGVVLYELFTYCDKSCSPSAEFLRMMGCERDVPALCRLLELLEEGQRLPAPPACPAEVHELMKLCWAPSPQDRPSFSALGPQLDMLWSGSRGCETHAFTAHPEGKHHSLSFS
Protocol: Compound inhibition of JAK was assayed by the method described by G. R. Brown, et al, Bioorg. Med. Chem. Lett. 2000, vol. 10, pp 575-579 in the following manner. Into Maxisorb plates, previously coated at 4° C. with Poly (Glu, Ala, Tyr) 6:3:1 then washed with phosphate buffered saline 0.05% and Tween-(PBST), was added 2 μM ATP, 5 mM MgCl2, and a solution of compound in DMSO. The reaction was started with JAK enzyme and the plates incubated for 60 minutes at 30° C. The plates were then washed with PBST, 100 μL HRP-Conjugated 4G10 antibody was added, and the plate incubated for 90 minutes at 30° C. The plate was again washed with PBST, 100 μL TMB solution is added, and the plates were incubated for another 30 minutes at 30° C. Sulfuric acid (100 μL of 1M) was added to stop the reaction and the plate is read at 450 nm to obtain the optical densities for analysis to determine Ki values.

[2] = molecular target: T2, CDK-2/Cyclin A (Homo sapiens, UniProt P24941); assay: Inhibition of CDK-2, coupled enzyme assay; settings: 100 μM ATP, 30° C.
T2 construct: 25 nM CDK-2/Cyclin A
Protocol: Compounds are screened for their ability to inhibit CDK-2/Cyclin A using a standard coupled enzyme assay [Fox et al. Protein Sci. 1998, 7, 2249]. Reactions were carried out in 100 mM HEPES (pH 7.5), 10 mM MgCl2, 25 mM NaCl, 1 mM DTT and 1.5% DMSO. Final substrate concentrations in the assay are 100 μM ATP (Sigma chemicals) and 100 μM peptide (American Peptide, Sunnyvale, Calif.). Assays are carried out at 30° C. and 25 nM CDK-2/Cyclin A. Final concentrations of the components of the coupled enzyme system are 2.5 mM phosphoenolpyruvate, 350 μM NADH, 30 μg/ml pyruvate kinase and 10 μg/ml lactate dehydrogenase.
An assay stock buffer solution is prepared containing all of the reagents listed above, with the exception of CDK-2/Cyclin A, DTT and the test compound of interest. 56 μl of the test reaction is placed in a 384 well plate followed by addition of 1 μl of 2 mM DMSO stock containing the test compound (final compound concentration 30 μM). The plate is preincubated for ˜10 minutes at 30° C. and the reaction initiated by addition of 10 μl of enzyme (final concentration 25 nM). Rates of reaction are obtained using a BioRad Ultramark plate reader (Hercules, Calif.) over a 5 minute read time at 30° C. Ki values are determined according to standard methods.

[3] = molecular target: KDR (Homo sapiens, UniProt P35968); assay: Inhibition of KDR, coupled enzyme assay; settings: 300 μM ATP, 37° C.
Protocol: Compounds were screened for their ability to inhibit KDR using a standard coupled enzyme assay (Fox et al., Protein Sci., (1998) 7, 2249). Assays were carried out in a mixture of 200 mM HEPES 7.5, 10 mM MgCl2, 25 mM NaCl, 1 mM DTT and 1.5% DMSO. Final substrate concentrations in the assay were 300 μM ATP (Sigma Chemicals) and 10 μM poly E4Y (Sigma). Assays were carried out at 37° C. and 30 nM KDR. Final concentrations of the components of the coupled enzyme system were 2.5 mM phosphoenolpyruvate, 200 μM NADH, 30 μg/ML pyruvate kinase and 10 μg/ml lactate dehydrogenase.
An assay stock buffer solution was prepared containing all of the reagents listed above, with the exception of ATP and the test compound of interest. 177 μl of the stock solution was placed in a 96 well plate followed by addition of 3 μl of 2 mM DMSO stock containing the test compound (final compound concentration 30 μM). The plate was preincubated for about 10 minutes at 37° C. and the reaction initiated by addition of 20 μl of ATP (final concentration 300 μM). Rates of reaction were obtained using a Molecular Devices plate reader (Sunnyvale, Calif.) over a 5 minute read time at 37° C.

Sequence of KDR (P35968 20-1356): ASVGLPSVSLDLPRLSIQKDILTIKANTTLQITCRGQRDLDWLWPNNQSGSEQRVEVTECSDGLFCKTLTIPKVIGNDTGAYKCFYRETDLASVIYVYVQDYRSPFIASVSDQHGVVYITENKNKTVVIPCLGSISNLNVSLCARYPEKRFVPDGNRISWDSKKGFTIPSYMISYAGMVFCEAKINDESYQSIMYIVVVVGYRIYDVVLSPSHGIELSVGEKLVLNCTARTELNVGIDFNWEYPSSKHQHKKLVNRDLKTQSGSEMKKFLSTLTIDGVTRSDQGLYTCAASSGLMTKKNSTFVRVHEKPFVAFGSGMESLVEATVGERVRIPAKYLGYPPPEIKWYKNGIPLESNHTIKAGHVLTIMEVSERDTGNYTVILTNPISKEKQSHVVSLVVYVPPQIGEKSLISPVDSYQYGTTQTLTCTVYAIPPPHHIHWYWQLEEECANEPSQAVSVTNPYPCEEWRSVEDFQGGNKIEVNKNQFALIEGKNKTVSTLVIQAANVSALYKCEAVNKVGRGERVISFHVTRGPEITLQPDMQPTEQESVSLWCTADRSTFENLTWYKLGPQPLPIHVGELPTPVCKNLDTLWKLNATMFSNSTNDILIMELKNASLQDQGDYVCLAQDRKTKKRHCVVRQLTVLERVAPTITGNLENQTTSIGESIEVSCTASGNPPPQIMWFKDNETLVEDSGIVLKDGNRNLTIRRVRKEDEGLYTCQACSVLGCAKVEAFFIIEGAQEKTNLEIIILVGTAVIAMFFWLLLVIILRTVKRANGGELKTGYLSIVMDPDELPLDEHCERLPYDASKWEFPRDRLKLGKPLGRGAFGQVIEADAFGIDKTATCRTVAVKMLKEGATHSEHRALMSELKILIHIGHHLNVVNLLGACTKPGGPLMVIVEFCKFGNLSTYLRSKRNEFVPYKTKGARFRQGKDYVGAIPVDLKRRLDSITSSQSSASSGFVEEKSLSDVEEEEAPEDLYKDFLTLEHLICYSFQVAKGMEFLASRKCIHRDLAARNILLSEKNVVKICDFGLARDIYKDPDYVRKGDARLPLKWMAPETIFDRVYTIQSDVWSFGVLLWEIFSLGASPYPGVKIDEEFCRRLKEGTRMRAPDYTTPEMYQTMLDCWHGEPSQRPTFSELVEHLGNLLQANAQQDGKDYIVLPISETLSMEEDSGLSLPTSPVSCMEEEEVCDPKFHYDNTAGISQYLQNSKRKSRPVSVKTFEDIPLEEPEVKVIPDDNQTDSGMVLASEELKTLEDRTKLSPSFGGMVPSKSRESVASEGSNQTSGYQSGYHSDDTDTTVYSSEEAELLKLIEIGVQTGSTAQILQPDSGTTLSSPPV

SMILES | Ki [1] [µM] | Ki [2] [µM] | Ki [3] [µM]
COc1cc(Nc2ncn(-c3ccccc3)n2)cc(OC)c1OC [Compound I-42] | 0.01 to 1 | > 1 | –
COc1cc(Nc2ncn(-c3ccc(C#N)cc3)n2)cc(OC)c1OC [Compound I-43] | 0.01 to 1 | 0.5 to 1 | –
c1ccc(-n2cnc(Nc3ccc4c(c3)OCCO4)n2)cc1 [Compound I-44] | > 1 | > 1 | –
CCOc1cccc(Nc2ncn(-c3ccccc3)n2)c1 [Compound I-45] | > 1 | > 1 | –
CC(C)Oc1cccc(Nc2ncn(-c3ccccc3)n2)c1 [Compound I-46] | > 1 | > 1 | –
CCOc1ccc(Nc2ncn(-c3ccccc3)n2)cc1 [Compound I-47] | > 1 | > 1 | –
c1ccc(Nc2ncn(-c3ccnc(N4CCCCC4)c3)n2)cc1 [Compound I-49, phenyl-[1-(3,4,5,6-tetrahydro-2H-[1,2′]bipyridinyl-4′-yl)-1H-[1,2,4]triazol-3-yl]-amine] | 0.01 to 1 | < 0.5 | < 0.1
c1ccc(Nc2ncn(-c3ccnc(NC4CCCCC4)c3)n2)cc1 [Compound I-50] | 0.01 to 1 | < 0.5 | 0.1 to 1
CN(CCO)c1cc(-n2cnc(Nc3ccccc3)n2)ccn1 [Compound I-51] | 0.01 to 1 | < 0.5 | < 0.1
c1ccc(Nc2ncn(-c3ccnc(N4CCCCCCC4)c3)n2)cc1 [Compound I-52] | 0.01 to 1 | < 0.5 | < 0.1
CN(C)CCCN(C)c1cc(-n2cnc(Nc3ccccc3)n2)ccn1 [Compound I-53] | > 1 | > 1 | 0.1 to 1
CCN(CCO)c1cc(-n2cnc(Nc3ccccc3)n2)ccn1 [Compound I-54] | 0.01 to 1 | < 0.5 | < 0.1
CN(Cc1ccccc1)c1cc(-n2cnc(Nc3ccccc3)n2)ccn1 [Compound I-55] | 0.01 to 1 | < 0.5 | 0.1 to 1
CC1CCCN1c1cc(-n2cnc(Nc3ccccc3)n2)ccn1 (centres unmarked) [Compound I-56] | 0.01 to 1 | < 0.5 | < 0.1

Next, values leading:

Ki [1] [µM] | Ki [2] [µM] | Ki [3] [µM] | SMILES
0.01 to 1 | < 0.5 | < 0.1 | CN(Cc1cccnc1)c1cc(-n2cnc(Nc3ccccc3)n2)ccn1 [Compound I-57]
0.01 to 1 | < 0.5 | < 0.1 | CCCN(CCO)c1cc(-n2cnc(Nc3ccccc3)n2)ccn1 [Compound I-58]
0.01 to 1 | < 0.5 | < 0.1 | COCCN(C)c1cc(-n2cnc(Nc3ccccc3)n2)ccn1 [Compound I-59, (2-methoxy-ethyl)-methyl-[4-(3-phenylamino-[1,2,4]triazol-1-yl)-pyridin-2-yl]-amine]
> 1 | > 1 | > 1 | CCN(CC)CCNc1cc(-n2cnc(Nc3ccccc3)n2)ccn1 [Compound I-60]
> 1 | 0.5 to 1 | 0.1 to 1 | CN1C(C)(C)CC(Nc2cc(-n3cnc(Nc4ccccc4)n3)ccn2)CC1(C)C [Compound I-61]
0.01 to 1 | < 0.5 | < 0.1 | CC(C)CCN(C)c1cc(-n2cnc(Nc3ccccc3)n2)ccn1 [Compound I-62, methyl-(3-methyl-butyl)-[4-(3-phenylamino-[1,2,4]triazol-1-yl)-pyridin-2-yl]-amine]
> 1 | > 1 | > 1 | O=c1[nH]c2ccccc2n1C1CCN(c2cc(-n3cnc(Nc4ccccc4)n3)ccn2)CC1 [Compound I-63]
> 1 | > 1 | > 1 | O=C(C1CCCO1)N1CCN(c2cc(-n3cnc(Nc4ccccc4)n3)ccn2)CC1 (centres unmarked) [Compound I-64]
0.01 to 1 | < 0.5 | 0.1 to 1 | OC[C@H]1CCCN(c2cc(-n3cnc(Nc4ccccc4)n3)ccn2)C1 [Compound I-65]
> 1 | > 1 | – | CN1CCN(c2ccc(Nc3ncn(-c4ccccc4)n3)cn2)CC1 [Compound I-135]
